In publication PMC4503722, “Novel Phenotypic Outcomes Identified for a Public Collection of Approved Drugs from a Publicly Accessible Panel of Assays” (PLoS ONE, 2015):
Where two headings read alike, the source gives them in different places.

Legend:
[1] = test system: endothelial tube formation in co-cultures of ECFCs and ADSCs treated with VEGF; assay: cells; type: cell-based, human
NCI-H716 cells = assay: cells; type: cell-based, Human
[2] = test system: HCT116 cells treated with a GSK3β inhibitor; assay: cells; type: cell-based
[3] = test system: nuclear β-catenin in C2C12 cells; assay: cells; type: cell-based
INS-1E cells = assay: cells; type: cell-based, rat
hFLT3 = biological target: T1, hFLT3 (Homo sapiens, UniProt P36888); assay: Cerep LANCE kinase assay hFLT3 (S1 assay 35); type: biochemical; settings: read-out: FLT3
T1 construct: purchased Cerep (LANCE kinase assay platform, contract assay)

HCT116 = assay: cells; type: cell-based
SW480 = assay: cells; type: cell-based
DLD-1 = assay: cells; type: cell-based
hp70S6K1 (RPS6KB1) = biological target: T2, hp70S6K1 (RPS6KB1) (Homo sapiens, UniProt P23443); assay: Cerep LANCE kinase assay hp70S6K1 (S1 assay 31); type: biochemical; settings: read-out: p70S6K1
T2 construct: purchased Cerep (LANCE kinase assay platform, contract assay)

hJAK2 = biological target: T3, hJAK2 (Homo sapiens, UniProt O60674); assay: Cerep LANCE kinase assay hJAK2 (S1 assay 33); type: biochemical; settings: read-out: JAK2
T3 construct: purchased Cerep (LANCE kinase assay platform, contract assay)

HeLa cells = assay: cells; type: cell-based; settings: HeLa, read-out: CellCycle G2/M
hKDR = biological target: T4, hKDR (Homo sapiens, UniProt P35968); assay: Cerep LANCE kinase assay hKDR (S1 assay 32); type: biochemical; settings: read-out: KDR
T4 construct: purchased Cerep (LANCE kinase assay platform, contract assay)

hGSK3b = biological target: T5, hGSK3b (Homo sapiens, UniProt P49841); assay: Cerep LANCE kinase assay hGSK3b (S1 assay 34); type: biochemical; settings: read-out: GSK3b
T5 construct: purchased Cerep (LANCE kinase assay platform, contract assay)

[4] = Homo sapiens, read-out: Anti-Angiogenesis
[5] = Homo sapiens, NCI-H716, read-out: GLP 1 Secretion
[6] = Homo sapiens, HCT-116, read-out: GSK3b inh pretreated_Viability ATP HCT116
[7] = Mus musculus, C2C12, read-out: Wnt Pathway
[8] = Rattus norvegicus, INS-1E, read-out: Insulin Secretion
[9] = Homo sapiens, HCT-116, read-out: Basal_Viability ATP HCT116
[10] = Homo sapiens, SW480, read-out: Basal_Viability ATP SW480
[11] = Homo sapiens, DLD-1, read-out: Basal_Viability ATP DLD-1

T5 sequence (P49841 whole entry): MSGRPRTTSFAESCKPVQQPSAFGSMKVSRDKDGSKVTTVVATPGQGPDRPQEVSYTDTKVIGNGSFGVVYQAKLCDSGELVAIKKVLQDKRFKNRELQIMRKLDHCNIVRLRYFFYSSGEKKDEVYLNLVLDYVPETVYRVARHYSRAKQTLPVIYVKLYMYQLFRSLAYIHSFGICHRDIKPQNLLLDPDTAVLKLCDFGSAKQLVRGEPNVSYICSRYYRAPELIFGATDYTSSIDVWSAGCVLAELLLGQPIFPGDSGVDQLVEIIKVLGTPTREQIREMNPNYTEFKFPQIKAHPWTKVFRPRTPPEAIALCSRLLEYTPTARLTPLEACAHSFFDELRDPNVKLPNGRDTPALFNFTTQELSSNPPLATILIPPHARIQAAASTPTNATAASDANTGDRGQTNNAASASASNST
T2 sequence (P23443 whole entry): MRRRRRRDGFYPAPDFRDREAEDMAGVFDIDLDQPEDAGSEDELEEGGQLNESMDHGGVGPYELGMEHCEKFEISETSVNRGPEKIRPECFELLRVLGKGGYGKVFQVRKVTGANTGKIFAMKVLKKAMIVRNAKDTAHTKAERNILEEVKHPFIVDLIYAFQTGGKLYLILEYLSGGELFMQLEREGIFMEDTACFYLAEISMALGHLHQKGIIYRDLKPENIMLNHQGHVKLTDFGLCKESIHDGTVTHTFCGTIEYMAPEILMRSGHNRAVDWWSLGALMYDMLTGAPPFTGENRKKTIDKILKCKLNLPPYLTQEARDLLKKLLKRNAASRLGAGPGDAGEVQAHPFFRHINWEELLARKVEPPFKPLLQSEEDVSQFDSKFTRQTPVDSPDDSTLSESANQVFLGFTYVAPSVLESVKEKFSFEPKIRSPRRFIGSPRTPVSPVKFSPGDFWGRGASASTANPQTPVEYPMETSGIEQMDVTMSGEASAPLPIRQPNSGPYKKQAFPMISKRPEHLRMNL
T1 sequence (P36888 27-993): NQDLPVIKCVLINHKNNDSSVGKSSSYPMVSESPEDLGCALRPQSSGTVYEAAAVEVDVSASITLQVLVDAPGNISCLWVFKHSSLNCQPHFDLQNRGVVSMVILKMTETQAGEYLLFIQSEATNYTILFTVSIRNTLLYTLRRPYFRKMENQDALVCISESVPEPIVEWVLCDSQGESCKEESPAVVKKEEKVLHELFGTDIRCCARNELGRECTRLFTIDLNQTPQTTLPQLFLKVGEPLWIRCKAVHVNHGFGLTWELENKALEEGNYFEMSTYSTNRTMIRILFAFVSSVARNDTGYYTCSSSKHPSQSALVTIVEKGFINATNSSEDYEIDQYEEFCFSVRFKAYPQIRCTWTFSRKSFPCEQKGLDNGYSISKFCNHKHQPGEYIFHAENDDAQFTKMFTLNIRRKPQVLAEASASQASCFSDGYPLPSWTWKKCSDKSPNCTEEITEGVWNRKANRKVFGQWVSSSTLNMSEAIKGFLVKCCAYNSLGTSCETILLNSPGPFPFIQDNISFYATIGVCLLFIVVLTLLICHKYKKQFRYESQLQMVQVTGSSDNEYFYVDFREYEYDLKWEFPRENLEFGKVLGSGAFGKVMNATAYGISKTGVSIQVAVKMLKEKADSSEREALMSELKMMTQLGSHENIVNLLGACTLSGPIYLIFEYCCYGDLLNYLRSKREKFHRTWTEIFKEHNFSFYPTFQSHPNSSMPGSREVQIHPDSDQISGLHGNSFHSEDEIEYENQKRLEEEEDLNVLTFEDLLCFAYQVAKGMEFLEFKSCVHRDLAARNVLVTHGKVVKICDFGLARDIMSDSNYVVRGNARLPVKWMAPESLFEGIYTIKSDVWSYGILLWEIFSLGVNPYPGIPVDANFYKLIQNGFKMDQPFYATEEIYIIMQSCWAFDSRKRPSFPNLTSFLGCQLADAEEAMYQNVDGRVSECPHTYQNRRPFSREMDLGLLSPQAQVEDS
T3 sequence (O60674 whole entry): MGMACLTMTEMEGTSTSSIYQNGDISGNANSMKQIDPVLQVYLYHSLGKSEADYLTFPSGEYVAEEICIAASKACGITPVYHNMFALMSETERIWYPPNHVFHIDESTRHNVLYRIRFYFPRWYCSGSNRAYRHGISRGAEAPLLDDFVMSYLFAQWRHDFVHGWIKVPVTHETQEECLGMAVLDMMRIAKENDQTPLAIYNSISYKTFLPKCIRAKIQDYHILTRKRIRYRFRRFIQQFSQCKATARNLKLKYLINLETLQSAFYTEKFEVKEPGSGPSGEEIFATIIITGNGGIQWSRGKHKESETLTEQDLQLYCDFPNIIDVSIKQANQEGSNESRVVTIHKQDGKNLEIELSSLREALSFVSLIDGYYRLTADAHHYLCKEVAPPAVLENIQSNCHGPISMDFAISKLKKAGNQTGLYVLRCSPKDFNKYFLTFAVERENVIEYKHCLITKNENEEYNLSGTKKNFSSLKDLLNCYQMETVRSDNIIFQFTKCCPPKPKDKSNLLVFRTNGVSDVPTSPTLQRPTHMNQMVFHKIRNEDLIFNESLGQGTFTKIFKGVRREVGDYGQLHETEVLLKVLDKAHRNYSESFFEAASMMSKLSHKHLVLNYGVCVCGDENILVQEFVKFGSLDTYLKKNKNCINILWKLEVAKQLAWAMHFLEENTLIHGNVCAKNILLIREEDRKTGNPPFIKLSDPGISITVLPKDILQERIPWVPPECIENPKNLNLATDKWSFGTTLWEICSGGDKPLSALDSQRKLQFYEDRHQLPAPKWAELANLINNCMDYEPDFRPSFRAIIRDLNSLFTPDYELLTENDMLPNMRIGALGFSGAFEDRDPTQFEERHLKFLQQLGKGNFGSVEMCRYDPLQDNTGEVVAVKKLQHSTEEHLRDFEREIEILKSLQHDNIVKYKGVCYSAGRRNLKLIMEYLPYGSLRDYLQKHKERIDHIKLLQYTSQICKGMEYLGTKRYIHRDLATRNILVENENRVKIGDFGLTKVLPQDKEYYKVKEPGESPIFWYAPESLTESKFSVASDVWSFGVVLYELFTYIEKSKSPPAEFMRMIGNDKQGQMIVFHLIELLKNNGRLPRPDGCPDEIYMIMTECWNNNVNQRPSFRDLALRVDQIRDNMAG
T4 sequence (P35968 20-1356): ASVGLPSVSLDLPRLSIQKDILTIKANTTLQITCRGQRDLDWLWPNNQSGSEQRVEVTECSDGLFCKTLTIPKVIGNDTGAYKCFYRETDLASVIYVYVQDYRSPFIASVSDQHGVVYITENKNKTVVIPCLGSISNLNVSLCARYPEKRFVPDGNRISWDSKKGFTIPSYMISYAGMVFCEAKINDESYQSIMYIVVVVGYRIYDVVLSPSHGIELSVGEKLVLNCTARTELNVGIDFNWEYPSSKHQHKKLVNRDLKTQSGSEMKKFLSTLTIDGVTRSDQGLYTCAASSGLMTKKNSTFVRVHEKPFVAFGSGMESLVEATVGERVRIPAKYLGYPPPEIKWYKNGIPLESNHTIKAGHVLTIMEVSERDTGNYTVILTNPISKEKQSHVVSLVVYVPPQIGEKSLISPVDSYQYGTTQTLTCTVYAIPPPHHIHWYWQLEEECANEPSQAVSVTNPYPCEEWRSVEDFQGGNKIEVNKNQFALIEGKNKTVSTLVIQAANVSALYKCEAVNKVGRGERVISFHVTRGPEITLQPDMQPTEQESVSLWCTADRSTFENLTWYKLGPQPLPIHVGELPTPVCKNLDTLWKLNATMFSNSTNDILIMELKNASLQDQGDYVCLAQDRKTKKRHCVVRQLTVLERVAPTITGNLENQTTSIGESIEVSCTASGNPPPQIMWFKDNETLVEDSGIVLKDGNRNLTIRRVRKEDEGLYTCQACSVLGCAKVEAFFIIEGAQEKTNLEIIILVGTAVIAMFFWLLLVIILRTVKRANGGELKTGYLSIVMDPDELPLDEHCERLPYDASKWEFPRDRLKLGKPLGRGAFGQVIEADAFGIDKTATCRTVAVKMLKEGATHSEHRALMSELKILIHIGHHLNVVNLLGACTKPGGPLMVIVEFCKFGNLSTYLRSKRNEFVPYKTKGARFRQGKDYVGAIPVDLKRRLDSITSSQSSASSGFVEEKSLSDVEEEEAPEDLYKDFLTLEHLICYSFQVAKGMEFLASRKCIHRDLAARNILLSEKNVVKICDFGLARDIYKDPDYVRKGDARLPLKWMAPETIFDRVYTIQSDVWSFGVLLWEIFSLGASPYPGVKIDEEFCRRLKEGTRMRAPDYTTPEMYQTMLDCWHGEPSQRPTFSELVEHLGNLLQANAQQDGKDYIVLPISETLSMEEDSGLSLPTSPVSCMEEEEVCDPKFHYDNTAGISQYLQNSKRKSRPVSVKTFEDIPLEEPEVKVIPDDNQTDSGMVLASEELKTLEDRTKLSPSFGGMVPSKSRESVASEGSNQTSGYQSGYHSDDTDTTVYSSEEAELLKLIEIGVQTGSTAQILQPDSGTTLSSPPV

SMILES	IC50 [1, 4] [µM]	EC50 (NCI-H716 cells; [5]) [µM]	IC50 [2, 6] [µM]	EC50 [3, 7] [µM]	EC50 (INS-1E cells; [8]) [µM]	IC50 (hFLT3; kinase assay) [µM]	IC50 (HCT116; [9]) [µM]	IC50 (SW480; [10]) [µM]	IC50 (DLD-1; [11]) [µM]	IC50 (hp70S6K1 (RPS6KB1); kinase assay) [µM]	IC50 (hJAK2; kinase assay) [µM]	EC50 (HeLa cells; Homo sapiens) [µM]	IC50 (hKDR; kinase assay) [µM]	IC50 (hGSK3b; kinase assay) [µM]	IC50 (hFLT3) [µM]	IC50 (hp70S6K1 (RPS6KB1)) [µM]	IC50 (hJAK2) [µM]	IC50 (hKDR) [µM]	IC50 (hGSK3b) [µM]	also measured
COc1cc(-c2ccc(=O)[nH]n2)ccc1OC(F)F [Zardaverine]	1.22	> 10	> 20	> 10	> 10	> 20	> 20	> 20	> 20	> 20	> 20	> 10	> 20	> 20	–	–	–	–	–	–
C[C@@H]1C[C@@H]([C@H](O)CC2CC(=O)NC(=O)C2)C(=O)[C@@H](C)C1	–	–	–	–	–	–	–	–	–	–	–	–	–	–	> 20	> 20	> 20	> 20	> 20	IC50 ([1]; IC50 / EC50, endothelial tube area, ADSC/ECFC co-culture, read-out: Anti-Angiogenesis): 1.15 µM; EC50 (NCI-H716 cells; IC50 / EC50, NCI-H716, read-out: GLP 1 Secretion): > 10 µM; IC50 ([2]; GSK3b inhibitor pretreated, read-out: GSK3b inh pretreated_Viability ATP HCT116): 1.02 µM; EC50 ([3]; IC50 / EC50, C2C12 beta-catenin translocation, read-out: Wnt Pathway): > 10 µM; EC50 (INS-1E cells; IC50 / EC50, INS-1E, read-out: Insulin Secretion): > 10 µM; IC50 (HCT116; basal, read-out: Basal_Viability ATP HCT116): 2.02 µM; IC50 (SW480; basal, read-out: Basal_Viability ATP SW480): 3.04 µM; IC50 (DLD-1; basal, read-out: Basal_Viability ATP DLD-1): 3.57 µM; EC50 (HeLa cells; IC50 / EC50): > 10 µM
CC[C@@]1(O)C(=O)OCc2c1cc1n(c2=O)Cc2c-1nc1ccccc1c2/C=N/OC(C)(C)C [Gimatecan]	–	–	0.0667	–	–	–	–	–	–	–	–	–	–	–	> 20	> 20	> 20	> 20	> 20	IC50 ([1]; Homo sapiens, IC50 / EC50, endothelial tube area, ADSC/ECFC co-culture, read-out: Anti-Angiogenesis): 0.002 µM; EC50 (NCI-H716 cells; Homo sapiens, IC50 / EC50, NCI-H716, read-out: GLP 1 Secretion): > 10 µM; EC50 ([3]; Mus musculus, C2C12, IC50 / EC50, C2C12 beta-catenin translocation, read-out: Wnt Pathway): 0.0032 µM; EC50 (INS-1E cells; Rattus norvegicus, IC50 / EC50, INS-1E, read-out: Insulin Secretion): > 10 µM; IC50 (HCT116; Homo sapiens, HCT-116, basal, read-out: Basal_Viability ATP HCT116): 0.0667 µM; IC50 (SW480; Homo sapiens, SW480, basal, read-out: Basal_Viability ATP SW480): 0.222 µM; IC50 (DLD-1; Homo sapiens, DLD-1, basal, read-out: Basal_Viability ATP DLD-1): 0.315 µM; EC50 (HeLa cells; Homo sapiens, IC50 / EC50): > 10 µM
CCc1nc(N)nc(N)c1-c1ccc(Cl)cc1 [pyrimethamine, reference compound]	–	–	–	0.0677	–	> 20	18.2	12.5	–	> 20	> 20	> 10	> 20	> 20	–	–	–	–	–	IC50 ([1]; Homo sapiens, read-out: Anti-Angio IC50): > 10 µM; EC50 (NCI-H716 cells; Homo sapiens, NCI-H716, read-out: GLP1 sec. EC50): > 10 µM; IC50 ([2]; Homo sapiens, HCT-116, 72 h, read-out: HCT-116 (GSK3β) viab. IC50): > 20 µM; EC50 ([3]; Mus musculus, C2C12, read-out: Wnt pot. EC50): 0.068 µM; EC50 (INS-1E cells; Rattus norvegicus, INS-1E, read-out: Ins. sec. EC50): > 10 µM; IC50 (HCT116; Homo sapiens, HCT-116, 72 h, read-out: HCT-116 viab. IC50): 18.2 µM; IC50 (SW480; Homo sapiens, SW480, 72 h, read-out: SW480 viab. IC50): 12.5 µM; IC50 (DLD-1; Homo sapiens, DLD-1, 72 h, read-out: DLD-1 viab. IC50): > 20 µM
CC[C@@H]([C@H](C)O)n1ncn(-c2ccc(N3CCN(c4ccc(OC[C@@H]5CO[C@@](Cn6cncn6)(c6ccc(F)cc6F)C5)cc4)CC3)cc2)c1=O [posaconazole]	6.46	> 10	> 20	1.63	> 10	–	6.24	5.81	> 20	–	–	> 10	–	–	> 20	> 20	> 20	> 20	> 20	–
C[n+]1c2cc(N)ccc2cc2ccc(N)cc21 [Acriflavinium chloride]	–	–	–	–	–	> 20	–	–	–	6.57	> 20	–	> 20	> 20	–	–	–	–	–	IC50 ([1]; S2 Table, module primary assay, 20 = no response at highest concentration, 20.1 = inactive in single concentration testing, read-out: Anti-Angiogenesis): > 10 µM; EC50 (NCI-H716 cells; S2 Table, module primary assay, 20 / 20.1 codes per legend, read-out: GLP 1 Secretion): > 10 µM; IC50 ([2]; HCT116 pretreated with GSK3b inhibitor, read-out: GSK3b inh pretreated_Viability ATP HCT116): 4.36 µM; EC50 ([3]; read-out: Wnt Pathway): 1.6 µM; EC50 (INS-1E cells; S2 Table, module primary assay, 20 / 20.1 codes per legend, read-out: Insulin Secretion): > 10 µM; IC50 (HCT116; basal, HCT116, read-out: Basal_Viability ATP HCT116): 10.3 µM; IC50 (SW480; basal, SW480, read-out: Basal_Viability ATP SW480): 1.26 µM; IC50 (DLD-1; basal, DLD-1, read-out: Basal_Viability ATP DLD-1): 4.03 µM; EC50 (HeLa cells; S2 Table, 20 = no response at highest concentration): > 10 µM
